According to patent US20230364051A1, “FORMULATIONS AND METHODS FOR IMPROVING AVIAN HEALTH” (CORNELL UNIVERSITY, priority 2022, published 2023):
Marks after values point to notes of the source that are not given here.

Key:
duodenum = assay: Duodenal tissue morphology examination (villi, crypts, goblet cells, Paneth cells); format: in vivo, Gallus gallus; conditions: 5 wt. % inulin intraamniotic, day 17; duodenum at hatch
Description: (§1) Cornish-cross fertile broiler eggs (Gallus gallus, n = 39) were obtained from a commercial hatchery (Moyer’s chicks, Quakertown, PA, USA). The eggs were incubated under optimal conditions at the Cornell University Animal Science Poultry Farm Incubator [18]. […] Each group was then injected with the specific solution (1 mL per egg) with a 21-gauge needle into the amniotic fluid. Treatments in powder form were separately diluted in DI H2O. […] After injection, the injection holes were sealed with cellophane tape and the eggs were placed in hatching baskets such that each treatment was equally represented at each incubator location. Immediately upon hatch (day 21), blood was taken for hemoglobin determination and all chicks were then euthanized by CO2 exposure. The small intestine, pectoral muscle, cecum, and liver were collected, immediately frozen in liquid nitrogen, and then stored in a -80° C. freezer until analysis.
Intestinal morphology examination was performed as was previously described. Duodenum samples were fixed in fresh 4 wt. % (v/v) buffered formaldehyde, dehydrated, cleared, and embedded in paraffin. Serial sections were cut at 5 µm and placed on glass slides. Intestinal sections were deparaffinized in xylene, rehydrated in a graded alcohol series, stained with Alcian Blue/Periodic acid-Schiff, and examined by light microscopy. The following variables were measured in the intestine: villus height, villus width, crypt depth, Paneth cell number per crypt, Paneth cell width, goblet cell number, goblet cell diameter, types of goblet cells in the villi epithelium, and types of goblet cells within the crypts. Measurements in each segment were performed with a light microscope using CellSens Standard software (Olympus, Waltham, MA, USA).

[1] = Pectoral muscle glycogen analysis after intraamniotic administration; format: in vivo, Gallus gallus; conditions: 5 wt. % inulin intraamniotic, day 17; pectoral muscle at hatch
Description: (§2) Cornish-cross fertile broiler eggs (Gallus gallus, n = 39) were obtained from a commercial hatchery (Moyer’s chicks, Quakertown, PA, USA). The eggs were incubated under optimal conditions at the Cornell University Animal Science Poultry Farm Incubator [18]. All animal protocols were approved by Cornell University Institutional Animal Care and Use committee (IACUC #2020-0077). At day 17 of embryonic incubation, eggs containing viable embryos were weighed and divided into 5 groups, with all treatment groups assigned eggs of similar weight frequency distribution. Each group was then injected with the specific solution (1 mL per egg) with a 21-gauge needle into the amniotic fluid. Treatments in powder form were separately diluted in DI H2O. Two treatment groups (1.25, 2.5 wt. %), two controls (H2O and non-injected), and a positive control (5 wt. % inulin) were administered. After injection, the injection holes were sealed with cellophane tape and the eggs were placed in hatching baskets such that each treatment was equally represented at each incubator location. Immediately upon hatch (day 21), blood was taken for hemoglobin determination and all chicks were then euthanized by CO2 exposure. The small intestine, pectoral muscle, cecum, and liver were collected, immediately frozen in liquid nitrogen, and then stored in a -80° C. freezer until analysis.
Glycogen analysis was obtained from pectoralis muscle as previously described. Briefly, the frozen pectoral muscle samples were homogenized in 8 wt. % perchloric acid. Samples were then centrifuged at 12,000 × g for 15 minutes. The supernatant was removed, and 1.0 mL of petroleum ether was added to each tube. After mixing, the petroleum ether fraction was removed and samples from the bottom layer were transferred to a 96-well plate containing 300 µL of color reagent. All samples were read at a wavelength of 450 nm in an ELISA reader and the amount of glycogen was calculated according to a standard curve. The amount of glycogen present in pectoral sample was determined by multiplying the weight of the tissue by the amount of glycogen per 1 g of wet tissue.

[2] = Blood hemoglobin (QuantiChrom Hemoglobin Assay) at hatch after intraamniotic administration; format: in vivo, Gallus gallus; conditions: 5 wt. % inulin intraamniotic, day 17; blood at hatch
Description: as §1
Blood was collected using micro-hematocrit heparinized capillary tubes (Fisher Scientific, Waltham, MA, USA). Blood Hb concentrations were determined spectrophotometrically using the QuantiChromTM Hemoglobin Assay (DIHB-250, BioAssay Systems, Hayward, CA, USA) following the kit manufacturer’s instructions.

L. plantarum = assay: Duodenal bacterial populations by PCR of 16S rDNA: L. plantarum; format: in vivo, Gallus gallus; conditions: 5 wt. % inulin vs H2O injected control, p < 0.05; duodenum, day of hatch
Description: as §2, with “Immediately upon hatch (day 21), blood was taken for hemoglobin determination and all chicks were then euthanized by CO2 exposure. The small intestine, pectoral muscle, cecum, and liver were collected, immediately frozen in liquid nitrogen, and then stored in a -80° C. freezer until analysis.” left out
(§3) Primers for Lactobacillus, Bifidobacterium, L. Plantarum, Clostridium, and E. coli were designed according to previously published data. […] PCR products were separated by electrophoresis on 2 wt. % agarose gel, stained with ethidium bromide, and quantified using the Quantity One 1-D analysis software (BioRad, Hercules, CA, USA).

[3] = Body weight and cecum weight at hatch after intraamniotic administration; format: in vivo, Gallus gallus
Description: as §2

Clostridium spp. = assay: Duodenal bacterial populations by PCR of 16S rDNA: Clostridium; format: in vivo, Gallus gallus; conditions: 5 wt. % inulin vs no injection and H2O injection controls, p < 0.05; duodenum, day of hatch
Description: as §2, with “Immediately upon hatch (day 21), blood was taken for hemoglobin determination and all chicks were then euthanized by CO2 exposure. The small intestine, pectoral muscle, cecum, and liver were collected, immediately frozen in liquid nitrogen, and then stored in a -80° C. freezer until analysis.” left out
as §3

[4] = test system: BBM Fe-related proteins and intestinal bacterial populations; conditions: in vivo; cited from earlier work
[5] = 5 wt. % inulin intraamniotic, day 17, at hatch

Compound: inulin [reference compound]
- # Crypt Paneth Cells (duodenum): 2.56 ± 0.09 ^c
- Crypt Depth (duodenum): 35.00 ± 0.43 ^b µm
- Crypt Goblet Cell Diameter (duodenum): 2.51 ± 0.02 ^c µm
- Crypt Goblet Cell Number Acidic (duodenum): 7.97 ± 0.16 ^b Unit
- Crypt Goblet Cell Number Mixture (duodenum): 1.19 ± 0.08 ^c Unit
- Crypt Goblet Cell Number Neutral (duodenum): 0.00 ± 0.00 ^a Unit
- Crypt Goblet Cell Number Total (duodenum): 9.15 ± 0.16 ^b Unit
- Crypt Paneth cell Diameter (duodenum): 1.68 ± 0.03 ^b µm
- Villi Goblet Cell Diameter (duodenum): 2.74 ± 0.03 ^e µm
- Villi Goblet Cell Number Acidic (duodenum): 16.39 ± 0.54 ^c Unit
- Villi Goblet Cell Number Mixture (duodenum): 6.53 ± 0.30 ^a Unit
- Villi Goblet Cell Number Neutral (duodenum): 0.10 ± 0.02 ^b Unit
- Villi Goblet Cell Number Total (duodenum): 23.02 ± 0.60 ^b Unit
- Villus Height (duodenum): 246.64 ± 5.14 ^a µm
- Villus Surface Area (duodenum): 206.92 ± 6.37 ^a mm2
- Villus Width (duodenum): 50.98 ± 1.03 ^a µm
- Average Glycogen [1]: 0.002 ± 0.001 ^b mg/g
- Average Hb [2]: 9.56 ± 0.92 ^c g/dL
- Relative abundance of L. plantarum (L. plantarum): significantly increased
- Average Body Weight [3, 5]: 46.04 ± 1.18 ^ab g
- Average Cecum Weight [3, 5]: 0.43 ± 0.05 ^b g
- Cecum weight of no injection and H2O groups compared to treated group ([3]; 5 wt. % inulin, p < 0.05): significantly greater values
- Relative abundance of Clostridium spp. (Clostridium spp.): significantly increased

Compound: O=c1c(-c2ccc(O)cc2)coc2cc(O)ccc12 [daidzein]
- Expression of BBM Fe-related proteins and intestinal bacterial populations [4]: affected
